Consider 16 compounds from patent US6548041B1, “Dopamine transporter imaging agents” (Organix, Inc., priority 1999, dated 2003).

SMILES strings stand for the structures.

Series [1] concerns the target dopamine transporter (DAT). In words: Binding affinity for the dopamine transporter. To be noted: for DAT/SERT: selectivity ratio from the IC50 values for DAT and SERT.
Series [2] concerns the target SERT (Homo sapiens, UniProt P31645). As to the kind of experiment: Binding affinity for SERT (selectivity test).
For series [3], the target named is T1, DAT sites in striatum (Macaca mulatta, UniProt Q7JHP9).
T1 construct: from tissue; host or cells: brain (striatum) of living rhesus monkeys, imaged in vivo
T1 sequence (Q7JHP9 1-620): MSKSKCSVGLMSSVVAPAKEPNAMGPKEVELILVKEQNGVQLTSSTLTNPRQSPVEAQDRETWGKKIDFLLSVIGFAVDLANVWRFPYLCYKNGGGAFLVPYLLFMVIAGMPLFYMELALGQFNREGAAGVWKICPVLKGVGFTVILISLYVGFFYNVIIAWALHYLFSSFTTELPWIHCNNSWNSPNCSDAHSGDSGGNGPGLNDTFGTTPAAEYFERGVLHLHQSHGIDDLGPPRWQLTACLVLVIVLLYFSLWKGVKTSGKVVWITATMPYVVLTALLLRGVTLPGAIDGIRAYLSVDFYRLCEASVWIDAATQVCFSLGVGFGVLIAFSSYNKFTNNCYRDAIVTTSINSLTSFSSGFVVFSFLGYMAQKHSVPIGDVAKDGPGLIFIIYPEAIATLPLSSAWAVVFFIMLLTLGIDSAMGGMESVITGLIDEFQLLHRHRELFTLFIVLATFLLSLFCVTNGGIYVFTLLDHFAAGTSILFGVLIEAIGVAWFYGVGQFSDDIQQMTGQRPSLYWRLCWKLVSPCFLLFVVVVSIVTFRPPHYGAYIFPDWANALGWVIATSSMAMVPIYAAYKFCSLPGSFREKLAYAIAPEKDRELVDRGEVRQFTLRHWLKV
In words: SPECT imaging of monkey brain with 99mTc labeled tracers. Format: in vivo, Rhesus monkeys. To be noted: for accumulation of radioactivity in striatum vs other areas of the brain (SPECT images): images acquired between 30 and 50 minutes after injection. As to the method:
(§1) All SPECT images were acquired with a MultiSPECT 2 gamma camera (Siemens, Hoffman Estates, Ill.) equipped with fan-beam collimators and peaked to the 140 KeV photopeak of ^99mTc (15% window). This camera has intrinsic resolution of 4.6 mm (FWHM), and a sensitivity of ˜240 cps/mCi. Images were acquired over 360° (60 projections/head, 128×128 matrix) in the continuous mode. Image reconstruction was performed using a conventional filtered back-projection algorithm to an in-plane resolution of 10 mm FWHM and attenuation correction via the Chang method.
(§2) Rhesus monkeys weighing approximately 7 kg were anesthetized with ketamine/xylazine (15.0 and 1.5 mg/kg) and positioned prone on the imaging bed of the SPECT camera. Before the start of imaging, a venous catheter was inserted in a peripheral vein for radiopharmaceutical administration. The heads of the animals were immobilized with a custom fabricated head holder. Approximately 20-25 mCi of ^99mTc labeled O-1505T, O-1508T, O-1561T or O-1560T was injected intravenously over 60 seconds. Dynamic SPECT imaging was initiated at the end of the infusion and consisted of 2 min. acquisitions during the first hour and 5 min. acquisitions thereafter.
(§3) SPECT slices with greatest striatal activity or in which the occipital cortex was well visualized were summed and regions of interest (ROI's) were constructed. In the striatal planes, ROI's were placed on the right and left striatum (caudate+putamen). Radioactivity in the right and left striatum were averaged. ROI radioactivities (cpm/cc) were decay corrected to the time of injection. The difference between striatal and occipital cortex activity (specific binding) was calculated for each image and was plotted as a function of time. Corrections for scattered fraction and partial volume effects were not performed.

The nature of series [4]: Biodistribution and radiation dosimetry (MIRdose). It counts as in vivo, Sprague-Dawley rats. To be noted: rat, 5 min to 24 hrs after injection. As to the method:
Groups of male Sprague-Dawley rats were in injected with ˜10 mCi of ^99mTc labeled O-1505T and O-1561T. At time intervals between 5 min. and 24 hrs after injection, groups of 6 animals injected with each radiopharmaceutical were sacrificed and biodistribution was measured. Samples of blood, heart, lung, liver, spleen, kidney, adrenal, stomach, GI tract, testes, bone, bone marrow and skeletal muscle were weighed and radioactivity was measured with a well type gamma counter (LKB model #1282, Wallac Oy, Finland). To correct for radioactive decay and permit calculation of the concentration of radioactivity in each organ as a fraction of the administered dose, aliquots of the injected doses were counted simultaneously. The results were expressed as percent injected dose per gram (%I.D./g) and radiation dosimetry was estimated by the MIRdose method.

The subject of series [5] is DAT sites in striatum. In words: SPECT imaging of monkey brain with 99mTc labeled tracers. To be noted: SPECT images. Format: in vivo, Rhesus monkeys. As to the method: as §1, §2, §3

SERT, sequence (P31645 whole entry, species assumed): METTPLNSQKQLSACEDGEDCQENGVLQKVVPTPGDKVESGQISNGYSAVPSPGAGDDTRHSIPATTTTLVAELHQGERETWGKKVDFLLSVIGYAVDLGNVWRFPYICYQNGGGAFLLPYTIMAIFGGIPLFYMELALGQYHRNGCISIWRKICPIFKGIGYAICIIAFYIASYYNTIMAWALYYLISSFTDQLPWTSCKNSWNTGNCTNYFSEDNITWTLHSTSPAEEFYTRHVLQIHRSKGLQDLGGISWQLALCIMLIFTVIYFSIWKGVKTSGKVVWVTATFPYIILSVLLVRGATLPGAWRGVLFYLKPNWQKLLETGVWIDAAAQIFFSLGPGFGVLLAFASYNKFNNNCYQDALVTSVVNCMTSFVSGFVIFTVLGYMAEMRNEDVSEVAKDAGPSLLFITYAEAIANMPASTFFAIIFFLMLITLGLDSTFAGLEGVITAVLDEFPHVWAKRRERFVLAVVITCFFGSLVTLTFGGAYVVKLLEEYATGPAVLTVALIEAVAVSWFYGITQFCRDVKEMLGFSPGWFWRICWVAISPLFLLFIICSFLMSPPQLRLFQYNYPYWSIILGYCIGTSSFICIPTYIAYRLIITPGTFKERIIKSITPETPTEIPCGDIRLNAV

Regarding `COC(=O)C1C(c2ccc(F)cc2)CC2CCC1N2CCC[N+]12CC[S][Re-]13(=[O])[S]CC[N]3C(=O)C2` (mixture of isomers) [Compound O-861], in series [1], the IC50 (as a rule, the concentration at which inhibition is half-maximal) was found to be 0.0029 µM and the DAT/SERT worked out at 28. The IC50 in series [2] stood at 0.08 µM.

For the compound `COC(=O)C1C(c2ccc(Cl)c(Cl)c2)CC2CCC1N2CCC[N+]12CC[S][Re-]13(=[O])[S]CC[N]3C(=O)C2` (mixture of isomers) [Compound O-863], in series [1], the IC50 was 0.04 µM.

On to `COC(=O)C1=C(c2ccc3ccccc3c2)CC2CCC1N2CCC[N+]12CC[S][Re-]13(=[O])[S]CC[N]3C(=O)C2` (mixture of isomers) [Compound O-1185, N-[(2-((3′-N′-Propyl-(1″R)-2″-methoxycarbonyl-3″-(2-naphthyl)-trop-2-ene)(2-mercaptoethyl)amino)acetyl)-2-aminoethane-thiolato]-rhenium (V) Oxide], for which, in series [1], the IC50 came out at 0.063 µM and the DAT/SERT is reported as 15. In series [2], this compound showed an IC50 of 0.96 µM.

As to `COC(=O)C1C(c2ccc3ccccc3c2)CC2CCC1N2CCC[N+]12CC[S][Re-]13(=[O])[S]CC[N]3C(=O)C2` (mixture of isomers) [Compound O-1339, N-[(2-((3′-N′-Propyl-(1″R)-2″β-methoxycarbonyl-3″β-(2-naphthyl)-tropane)(2-mercaptoethyl)amino)acetyl)-2-aminoethanethiolato]-rhenium (V) Oxide], the IC50 in series [1] is 0.0036 µM; in series [2], 0.059 µM. Moreover, the DAT/SERT in series [1] was 16.

`CCC(=O)C1C(c2ccc(F)cc2)CC2CCC1N2CCCN1CC[S][Re]2(=[O])[S]CC[N]2C(=O)C1` (mixture of isomers) [Compound O-1508, N-[(2-((3′-N′-Propyl-(1″R)-3″β-(4-fluorophenyl)tropane-2″β-1-propanoyl)(2-mercaptoethyl)amino)acetyl)-2-aminoethane-thiolato]rhenium (V) oxide]: in series [1], the IC50 is 0.0059 µM and the DAT/SERT was 34. The compound further had an IC50 in series [2] of 0.2 µM.

For `CCC(=O)C1C(c2ccc(Cl)c(Cl)c2)CC2CCC1N2CCCN1CC[S][Re]2(=[O])[S]CC[N]2C(=O)C1` (mixture of isomers) [Compound O-1561, N-[(2-((3′-N′-Propyl-(1″R)-3″α-(3,4-dichlorophenyl)tropane-2″β-1′″-propanoyl)(2-mercaptoethyl)amino)acetyl)-2-aminoethane-thiolato]rhenium (V) Oxide], in series [1], the IC50 was determined as 0.0053 µM and the DAT/SERT is listed as 63. In series [2], this compound returned an IC50 of 0.337 µM.

Regarding `COC(=O)C1C(c2ccc(F)cc2)CC2CCC1N2CCCN1CC[S][Re]2(=[O])[S]CC[N]2C(=O)C1` (single isomer, unassigned) [Compound O-927], in series [1], the IC50 was 0.005 µM and the DAT/SERT is given as 40. In series [2], the IC50 was found to be 0.2 µM.

On to `COC(=O)C1C(c2ccc(F)cc2)CC2CCC1N2CCCN1CC[S][Re]2(=[O])[S]CC[N]2C(=O)C1` (single isomer, unassigned) [Compound O-928], for which, in series [1], the IC50 came to 0.003 µM and the DAT/SERT was found to be 10. This compound came in with an IC50 in series [2] of 0.03 µM.

Regarding `COC(=O)C1=C(c2ccc(Cl)c(Cl)c2)CC2CCC1N2CCC[N+]12CC[S][Re-]13(=[O])[S]CC[N]3C(=O)C2` (centres unmarked) [Compound O-1136, N-[(2-((3′-N′-Propyl-(1″R)-3″-(3,4-dichlorophenyl)trop-2-ene-2″-methoxycarbonyl)(2-mercaptoethyl)amino)acetyl)-2-aminoethane-thiolato]rhenium (V) Oxide], the IC50 was 0.06 µM in series [1] and 1.69 µM in series [2]. Further, the DAT/SERT in series [1] worked out at 28.

In the case of `COC(=O)C1C(c2ccc(F)cc2)CC2CCC1N2CCC[N+]12CC[S][Re-]13(=[O])[S]CC[N]3C(=O)C2` (centres unmarked) [Compound O-1186], in series [1], the IC50 came to 0.0038 µM and the DAT/SERT is on record as 340. Besides, in series [2], the IC50 was determined as 1.3 µM.

Regarding `COC(=O)C1C(c2ccc(Cl)c(Cl)c2)CC2CCC1N2CCC[N+]12CC[S][Re-]13(=[O])[S]CC[N]3C(=O)C2` (stereo not drawn) [Compound O-1196, N-[(2-((3′-N′-Propyl-(1″R)-3″α-(3,4-dichlorophenyl)-2″β-methoxy-carbonyltropane)(2-mercaptoethyl)amino)acetyl)-2-aminoethanethiolato]rhenium (V) Oxide], the figures for the IC50 in series [1] and in series [2] were 0.01 µM and 0.64 µM, respectively. In addition, in series [1], the DAT/SERT worked out at 64.

In the case of `CON(C)C(=O)C1C(c2ccc(F)cc2)CC2CCC1N2CCC[N+]12CC[S][Re-]13(=[O])[S]CC[N]3C(=O)C2` (stereo not drawn) [Compound O-1451, N-[(2-((3′-N′-Propyl-(1″R)-3″α-(4-fluorophenyl)tropane-2″β-methoxymethylcarbamoyl)(2-mercaptoethyl)amino)acetyl)-2-aminoethanethiolato]rhenium (V) Oxide], the IC50 was determined as 0.04 µM in series [1] and 3.26 µM in series [2]. In addition, the DAT/SERT in series [1] was determined as 80.

With `CCC(=O)C1C(c2ccc(F)cc2)CC2CCC1N2CCC[N+]12CC[S][Re-]13(=[O])[S]CC[N]3C(=O)C2` (stereo not drawn) [Compound O-1505, N-[(2-((3′-N′-Propyl-(1″R)-3″α-(4-fluorophenyl)tropane-2″β-1′″-propanoyl)(2-mercaptoethyl)amino)acetyl)-2-aminoethane-thiolato]rhenium (V) Oxide], in series [1], the IC50 is 0.002 µM and the DAT/SERT is listed as 249. This compound returned an IC50 in series [2] of 0.497 µM.

Take `CCC(=O)C1C(c2ccc(F)cc2)CC2CCC1N2CCCN1CC[S][99Tc]2(=[O])[S]CC[N]2C(=O)C1` (stereo not drawn) [Compound O-1508T, N-[(2-((3′-N′-Propyl-(1″R)-3″β-(4-fluorophenyl)tropane-2″β-1-propanoyl)-(2-mercaptoethyl)amino)acetyl)-2-aminoethanethiolato]technetium (V) Oxide]: the “accumulation of radioactivity in striatum vs other areas of the brain (SPECT images)” value in series [3] was “failing to demonstrate significant accumulation of radioactivity in striatum or elsewhere in the brain”.

Turning to `CCC(=O)C1C(c2ccc(Cl)c(Cl)c2)CC2CCC1N2CCCN1CC[S][99Tc]2(=[O])[S]CC[N]2C(=O)C1` (stereo not drawn) [Compound O-1560T, N-[(2-((3′-N′-Propyl-(1″R)-2″β-1-propanoyl-3″β-(3,4-dichlorophenyl)-tropane)(2-mercaptoethyl)amino)acetyl)-2-aminoethanethiolato]-technetium (V) Oxide], the “accumulation of radioactivity in striatum vs other areas of the brain (SPECT images)” value in series [3] was “results more like O-1505T and O-1561T”.

In the case of `CCC(=O)C1C(c2ccc(Cl)c(Cl)c2)CC2CCC1N2CCCN1CC[S][99Tc]2(=[O])[S]CC[N]2C(=O)C1` (stereo not drawn) [Compound O-1561T, N-[(2-((3′-N′-Propyl-(1″R)-2″β-1-propanoyl-3″α-(3,4-dichlorophenyl)-tropane)(2-mercaptoethyl)amino)acetyl)-2-aminoethanethiolato]-technetium (V) Oxide], the “clearance from tissues (biodistribution)” value in series [4] is given as “cleared rapidly from all tissues of the rat”. Also, the “time after injection to excellent contrast between striatum and the rest of the brain” value in series [3] (i.v., normal monkeys) was at most 30 min. In addition, in series [3], the “accumulation of radioactivity in striatum vs other areas of the brain (SPECT images)” value is recorded as “high concentrations of radiopharmaceutical in the striatum with minimal accumulation in other areas of the brain”. Moreover, the “striatal to occipital cortex ratio” value in series [3] (region of interest analysis, SPECT images 30-50 minutes after i.v. injection of 20-25 mCi) is given as around 2.5. In addition, in series [5], the “accumulation in thalamus, hypothalamus or midbrain (regions rich in 5-HT transporters)” value is recorded as “lack of accumulation”.
